Assay results reported in US12398155B2, “Thienopyridinone compounds” (Janssen Pharmaceutica NV, priority 2019, dated 2025).
Where a name gives a salt, the structure may show the parent alone.

Assays:
[1] = molecular target: T1, human FGFR3 wild type enzyme (cytoplasmic domain) (Homo sapiens, UniProt P22607); assay: FGFR3 wild type mobility shift assay (enzymatic assay); format: biochemical; settings: 75 μM ATP, 50 minutes at 30° C.; read-out: FGFR3 wild type Caliper
T1 construct: human FGFR3 wild type enzyme (cytoplasmic domain, from Cama Biosciences); purchased Cama Biosciences (so in the source)
Experimental: FGFR3 Wild Type Mobility Shift Assay (Enzymatic Assay)
(§1) In a final reaction volume of 25 μL, 0.04 ng/μL human FGFR3 wild type enzyme (cytoplasmic domain, from Cama Biosciences) was incubated with 75 μM ATP, 1 μM FL-peptide 30 substrate and 250 nL of testing compound (1% DMSO final) in assay buffer (100 mM HEPES pH 7.4, 10 mM MgCl2, 0.003% Brij35, 1 mM DTT). After incubation for 50 minutes at 30° C. the reaction was stopped with 10 μL of 0.5M EDTA pH 8.0, and then 25 μL of reaction mixture was transferred to reading plate and measured on Caliper EZ reader II. The substrate-product conversion rate was used as raw data for normalization and concentration-response curve (10 dose points with 4× serial dilution, starting with 10 μM) was plotted using Prism to calculate IC50 (M), pIC50 (−log IC50) and HillSlope value.

[2] = molecular target: T2, human FGFR3 V555M enzyme (cytoplasmic domain carrying V555M mutation) (Homo sapiens, UniProt P22607, V555M); assay: FGFR3 V555M mobility shift assay (enzymatic assay); format: biochemical; settings: 30 μM ATP, 45 minutes at 30° C.; read-out: FGFR3 V555M Caliper
T2 construct: cytoplasmic domain carrying V555M mutation, from Cama Biosciences; purchased Cama Biosciences (so in the source)
Experimental: FGFR3 V555M Mobility Shift Assay (Enzymatic Assay)
as §1, with “FGFR3 V555M” for “FGFR3 wild type”, “(cytoplasmic domain carrying V555M mutation,” for “(cytoplasmic domain,”, “with 30” for “with 75”, “for 45” for “for 50”

[3] = test system: NIH/3T3 cells transfected with control vector; assay: NIH/3T3 mock cell proliferation assay (counter assay, general toxicity); format: cell-based; settings: Mus musculus, NIH3T3; 72-hr incubation, CellTiter Glo; read-out: NIH/3T3 MOCK CTG
Experimental: NIH/3T3 Mock Cell Proliferation Assay
(§2) In day 1, 90 μL of cell suspension (NIH/3T3 cells transfected with the same control vector as in the above two proliferation assays) (total 30,000 cells per well in growth medium (DMEM containing 1% Glutamax, 10% FBS and 1% Pen/Strep)) was seeded in a 96-well plate and then incubated overnight at 37° C. and 5% CO2. In day 2, 10 μL of growth medium containing 10-fold stock solution of testing compound was added into cell cultures (9 dose points with 3× serial dilution, starting with 30 μM, 0.3% DMSO final). After 72-hr incubation at 37° C. and 5% CO2, in day 5 a volume of 50 μL CellTiter Glo (CTG) reagent was added into cell-containing 96-well plate and the plate was incubated at room temperature for 10 minutes before RLUs (relative light unit) were measured on a microplate reader with luminescence detection module. The RLU value was normalized to survival % and concentration-response curve was plotted using Prism to calculate IC50 (M), pIC50 (−log IC50) and HillSlope value.

[4] = molecular target: T3, NIH/3T3 cells overexpressing FGFR3 WT-TACC3 fusion protein (Homo sapiens, UniProt P22607); assay: NIH/3T3 FGFR3 WT-TACC3 cell proliferation assay; format: cell-based; settings: 72-hr incubation, CellTiter Glo; read-out: NIH/3T3 FGFR3 WT-TACC3 CTG
T3 construct: NIH/3T3 FGFR3 WT-TACC3 CTG; other: 72-hr incubation, CellTiter Glo; fused on or other part: C-terminal part of TACC3 (coiled-coil) fused behind the FGFR3 kinase domain; Q9Y6A5 (Transforming acidic coiled-coil-containing protein 3)
Experimental: NIH/3T3 FGFR3 WT-TACC3 Cell Proliferation Assay
as §2, with “cells overexpressing FGFR3 WT-TACC3 fusion protein)” for “cells transfected with the same control vector as in the above two proliferation assays)”, “with 4×” for “with 3×”, “with 10” for “with 30”, “μM, 0.1%” for “μM, 0.3%”

[5] = molecular target: T4, NIH/3T3 cells overexpressing FGFR3 V555M-TACC3 fusion protein (Homo sapiens, UniProt P22607, V555M, cells depend on it); assay: NIH/3T3 FGFR3 V555M-TACC3 cell proliferation assay; format: cell-based; settings: 72-hr incubation, CellTiter Glo; read-out: NIH/3T3 FGFR3 V555M-TACC3 CTG
T4 construct: NIH/3T3 FGFR3 V555M-TACC3 CTG; other: 72-hr incubation, CellTiter Glo; fused on or other part: C-terminal part of TACC3 (coiled-coil) fused behind the FGFR3 kinase domain; Q9Y6A5 (Transforming acidic coiled-coil-containing protein 3)
Experimental: NIH/3T3 FGFR3 V555M-TACC3 Cell Proliferation Assay
as §2, with “cells overexpressing FGFR3 V555M-TACC3 fusion protein)” for “cells transfected with the same control vector as in the above two proliferation assays)”, “with 4×” for “with 3×”, “with 10” for “with 30”, “μM, 0.1%” for “μM, 0.3%”

T1 sequence (P22607 397-806 limits assumed): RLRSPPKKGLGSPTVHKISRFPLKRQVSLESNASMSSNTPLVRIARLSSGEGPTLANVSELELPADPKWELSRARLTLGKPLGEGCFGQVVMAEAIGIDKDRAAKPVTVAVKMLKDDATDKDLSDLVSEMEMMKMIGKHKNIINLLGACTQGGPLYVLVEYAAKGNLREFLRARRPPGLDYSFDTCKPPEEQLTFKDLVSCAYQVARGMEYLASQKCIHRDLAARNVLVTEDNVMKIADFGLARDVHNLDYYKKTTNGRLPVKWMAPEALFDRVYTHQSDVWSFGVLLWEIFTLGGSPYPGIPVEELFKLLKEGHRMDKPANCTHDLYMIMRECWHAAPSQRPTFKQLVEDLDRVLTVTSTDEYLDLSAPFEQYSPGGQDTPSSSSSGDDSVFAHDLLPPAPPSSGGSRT
T2 sequence (P22607 397-806 V555M limits assumed): as the sequence (P22607 397-806 limits assumed) above, with V159M counted along it
T3 sequence (P22607 whole entry, change not shown, the tested form may be a part): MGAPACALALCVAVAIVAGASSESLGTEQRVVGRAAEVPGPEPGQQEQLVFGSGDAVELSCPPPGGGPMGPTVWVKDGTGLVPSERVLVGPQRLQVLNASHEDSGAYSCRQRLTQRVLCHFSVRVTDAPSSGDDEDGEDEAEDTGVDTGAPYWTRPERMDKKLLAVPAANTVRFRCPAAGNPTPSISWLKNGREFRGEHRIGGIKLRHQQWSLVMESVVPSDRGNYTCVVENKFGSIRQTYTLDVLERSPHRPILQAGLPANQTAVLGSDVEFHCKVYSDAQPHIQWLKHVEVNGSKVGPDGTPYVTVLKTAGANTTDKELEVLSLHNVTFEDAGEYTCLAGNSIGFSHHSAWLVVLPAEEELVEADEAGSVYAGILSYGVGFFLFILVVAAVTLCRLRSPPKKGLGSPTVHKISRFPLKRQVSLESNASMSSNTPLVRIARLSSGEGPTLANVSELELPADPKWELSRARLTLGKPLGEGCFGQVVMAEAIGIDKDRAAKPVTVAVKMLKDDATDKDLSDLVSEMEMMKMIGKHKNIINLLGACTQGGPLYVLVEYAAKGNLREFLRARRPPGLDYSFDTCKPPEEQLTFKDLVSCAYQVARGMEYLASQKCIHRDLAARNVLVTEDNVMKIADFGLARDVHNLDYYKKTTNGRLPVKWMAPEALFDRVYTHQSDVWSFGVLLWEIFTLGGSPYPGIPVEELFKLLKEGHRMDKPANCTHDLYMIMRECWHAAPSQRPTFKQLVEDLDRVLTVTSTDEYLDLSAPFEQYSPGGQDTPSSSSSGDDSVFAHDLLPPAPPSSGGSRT
T4 sequence (P22607 whole entry V555M, the tested form may be a part): as the sequence (P22607 whole entry, change not shown, the tested form may be a part) above, with V555M counted along it

IC50 [1] [nM]	IC50 [2] [nM]	GI50 [4] [nM]	GI50 [5] [nM]	Compound	IC50 [3] [nM]
35.5	2.34	486	284	COCC(Nc1c(-c2nc3cnc(N4C[C@@H](C)O[C@@H](C)C4)cc3[nH]2)c(=O)[nH]c2ccsc12)c1ncccn1 (single isomer, unassigned) [Compound 7, (S*)-6-(6-(cis-2,6-dimethylmorpholino)-1H-imidazo[4,5-c]pyridin-2-yl)-7-((2-methoxy-1-(pyrimidin-2-yl)ethyl)amino)thieno[3,2-b]pyridin-5(4H)-one]	3050
28.6	9.42	–	–	COCC(Nc1c(-c2nc3cnc(N4C[C@@H](C)O[C@@H](C)C4)cc3[nH]2)c(=O)[nH]c2ccsc12)c1ncccn1 (single isomer, unassigned) [Compound 8, (R*)-6-(6-(cis-2,6-dimethylmorpholino)-1H-imidazo[4,5-c]pyridin-2-yl)-7-((2-methoxy-1-(pyrimidin-2-yl)ethyl)amino)thieno[3,2-b]pyridin-5(4H)-one]	–
290	119	–	–	COC[C@@H](Nc1c(-c2nc3ccc(N4C[C@@H](C)O[C@@H](C)C4)nc3[nH]2)c(=O)[nH]c2ccsc12)c1ncccn1 (single isomer, unassigned) [Compound 10, (S*)-6-(5-(cis-2,6-dimethylmorpholino)-3H-imidazo[4,5-b]pyridin-2-yl)-7-(((S*)-2-methoxy-1-(pyrimidin-2-yl)ethyl)amino)thieno[3,2-b]pyridin-5(4H)-one]	–
8.73	0.93	101	91.1	COC[C@H](Nc1c(-c2nc3ccc(N4C[C@@H](C)O[C@@H](C)C4)nc3[nH]2)c(=O)[nH]c2ccsc12)c1ncccn1 (single isomer, unassigned) [Compound 11, (R*)-6-(5-(cis-2,6-dimethylmorpholino)-3H-imidazo[4,5-b]pyridin-2-yl)-7-(((R*)-2-methoxy-1-(pyrimidin-2-yl)ethyl)amino)thieno[3,2-b]pyridin-5(4H)-one]	3200
0.24	0.33	3.82	5.02	CC(C)[C@H](Nc1c(-c2nc3cnc(N4CCN(C)CC4)cc3[nH]2)c(=O)[nH]c2ccsc12)c1ncccn1 (single isomer, unassigned) [Compound 12, (S*)-7-((2-methyl-1-(pyrimidin-2-yl)propyl)amino)-6-(6-(4-methylpiperazin-1-yl)-1H-imidazo[4,5-c]pyridin-2-yl)thieno[3,2-b]pyridin-5(4H)-one 0.6 formate]	482
21.2	2.74	–	–	C[C@@H](Nc1c(-c2nc3cnc(N4CCOCC4)cc3[nH]2)c(=O)[nH]c2ccsc12)c1ncccn1 [Compound 3, (R)-6-(6-Morpholino-1H-imidazo[4,5-c]pyridin-2-yl)-7-((1-(pyrimidin-2-yl)ethyl)amino)-thieno[3,2-b]pyridin-5(4H)-one]	–
0.14	0.13	2.1	4.64	C[C@H](Nc1c(-c2nc3cnc(N4CCN(C)CC4)cc3[nH]2)c(=O)[nH]c2ccsc12)c1ncccn1 [Compound 5, (S)-6-(6-(4-methylpiperazin-1-yl)-1H-imidazo[4,5-c]pyridin-2-yl)-7-((1-(pyrimidin-2-yl)-ethyl)amino)thieno[3,2-b]pyridin-5(4H)-one]	571
